Target: 5-hydroxytryptamine receptor 2A (Rattus norvegicus, UniProt P14842)
Sequence (P14842 whole entry): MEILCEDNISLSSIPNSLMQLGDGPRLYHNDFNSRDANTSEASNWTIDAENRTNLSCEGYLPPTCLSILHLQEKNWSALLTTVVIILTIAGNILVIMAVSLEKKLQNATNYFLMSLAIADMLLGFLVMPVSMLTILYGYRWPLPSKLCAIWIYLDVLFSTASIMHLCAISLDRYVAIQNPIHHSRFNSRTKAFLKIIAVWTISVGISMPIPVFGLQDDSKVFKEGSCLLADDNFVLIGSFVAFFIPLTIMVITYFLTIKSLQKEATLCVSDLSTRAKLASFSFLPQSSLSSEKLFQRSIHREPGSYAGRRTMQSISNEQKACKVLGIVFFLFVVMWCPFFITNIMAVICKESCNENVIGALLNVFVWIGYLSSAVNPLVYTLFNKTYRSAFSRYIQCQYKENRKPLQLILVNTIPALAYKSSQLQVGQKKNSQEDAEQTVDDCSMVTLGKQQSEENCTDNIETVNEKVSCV

**Q.** With CN1CCc2cc(Cl)c(O)cc2[C@@H](c2ccccc2)C1 [SCH 23390,R(+)] as the molecule, how does the Ki read?
**A.** Its Ki is 13.1 nM.

**Q.** CN1CCc2cc(Cl)c(O)cc2[C@H]2c3ccccc3CC[C@@H]21 was tested. Which Ki did it give?
**A.** Its Ki is 321 nM.
